“Also recorded” adds a separate entry of the source.
Experiments:
[1] = target: T1, HePTP (Homo sapiens, UniProt P35236); test: PTP panel IC50, 60-min preincubation; format: biochemical
T1 construct: HePTP, residues 22-360; made in house; host or cells: E. coli BL21(DE3)
Text: (§1) Building on the results from the SAR “by‐catalog” study, the following medicinal chemistry effort was prioritized on a systematic survey of the central phenyl scaffold, the sulfonamide linker, and the distal aryl moiety with the goal of a multiparameter optimization of potency and selectivity for SHP1 inhibition as well as drug‐like properties such as aqueous solubility and cell permeability. Additionally, given the crucial requirement for targeted covalent inhibitors to maintain tempered reactivity that enables selective target engagement and reduces cross‐reactivity to by‐standing nucleophiles in the cellular milieu,^[ [74], [75] ^] the medicinal chemistry campaign also sought to lower SHP1 covalent inhibitor reactivity with GSH and cytotoxicity. Careful assessment and evaluation of the SAR and other desirable drug‐like attributes of all synthesized molecules led to the identification of M029 (Figure 2a and Figure S2D, manuscript in preparation). […] To determine the selectivity of M029 for SHP1, we measured the IC50 value for M029‐mediated inhibition of a number of PTPs after a 60‐min preincubation. […] To assess potential direct interactions between SHP1 and M029, we utilized the thermal shift assay to measure the thermal stability of SHP1 in the presence of M029. […] To corroborate the covalent interaction between SHP1 and M029, a single SHP1‐M029 covalent adduct was observed by electrospray protein mass spectrometry when SHP1 was incubated with M029 (Figure 2e). […] This is in line with the expectation that SHP1 inactivation by M029 occurs through nucleophilic substitution of the chlorine from the chloroacetamide warhead.
(§2) To further confirm the time-dependent inhibition and determine the IC50 of acquired hits, repurchased compounds from Enamine were serially diluted in a 96-well plate, followed by the addition of proteins at 200 nM. After 10-minute and 60-minute preincubation, 2 µL of the mixture was transferred into 100 µM 6,8-Difluoro-4-Methylumbelliferyl Phosphate (DiFMUP, Invitrogen, cat# D6567) at a final volume of 200 µL. The reaction was allowed to proceed for 5 minutes and quenched by the addition of 40 µl of a 160 µM solution of bpV(Phen) (Sigma-Aldrich, cat# SML0889). The fluorescence signal was measured using a CLARIOstar Plus Microplate Spectrophotometer (BMG Labtech) using excitation and emission wavelengths of 340 nm and 450 nm, respectively. Data were fitted using Prism GraphPad 10.1.1.

[2] = target: T2, CDC14A (Homo sapiens, UniProt Q9UNH5); test: PTP panel IC50, 60-min preincubation; format: biochemical
T2 construct: CDC14A, residues 1-413; made in house; host or cells: E. coli BL21(DE3)
Text: as §1, §2

[3] = target: T3, MKP5 (Homo sapiens, UniProt Q9Y6W6); test: PTP panel IC50, 60-min preincubation; format: biochemical
T3 construct: MKP5, residues 320-647; made in house; host or cells: E. coli BL21(DE3)
Text: as §1, §2

[4] = target: T4, STEP (Homo sapiens, UniProt P54829); test: PTP panel IC50, 60-min preincubation; format: biochemical
T4 construct: STEP, residues 258-539; made in house; host or cells: E. coli BL21(DE3)
Text: as §1, §2

[5] = target: VHR (Homo sapiens, UniProt P51452); test: PTP panel IC50, 60-min preincubation; format: biochemical
Text: as §1, §2

[6] = target: T5, CD45 (Homo sapiens, UniProt P08575); test: PTP panel IC50, 60-min preincubation; format: biochemical
T5 construct: CD45, residues 620-1236; made in house; host or cells: E. coli BL21(DE3)
Text: as §1, §2

[7] = target: T6, PEST (Homo sapiens, UniProt Q05209); test: PTP panel IC50, 60-min preincubation; format: biochemical
T6 construct: PTP-PEST, residues 5-304; made in house; host or cells: E. coli BL21(DE3)
Text: as §1, §2

[8] = test system: MC38 colorectal tumors; test: MC38 syngeneic tumor model; format: in vivo, C57BL/6 mice
Protocol: Given its favorable PK profiles, we evaluated the antitumor activity of M029 in C57BL/6 mice bearing MC38 colorectal tumors. Mice bearing established tumors were given once daily with either saline, 25 mg/kg (IP), 25 mg/kg (PO), or 100 mg/kg (PO) M029.
Figure 5 M029 inhibits syngeneic MC38 tumor growth by promoting infiltration and activation of both T cells and NK cells in the tumor microenvironment. […] This T cell activation was further supported by i) the increased effector CD8^+ population in the tumor microenvironment. […] Statistical analyses were performed with Graphpad Prism software 10.4.2 through the student t test or the one‐way ANOVA test using Turkey post‐hoc comparison. *p < 0.05, **p < 0.01, ***p < 0.001, and ****p < 0.0001 were considered significant. Figures are plotted as average ± standard error of the mean (SEM).
All the in vivo studies were performed under an animal protocol (1511001324) approved by the Institutional Animal Care & Use Committee of Purdue University, in accordance with the recommendations in the Guide for the Care and Use of Laboratory Animals of the National Institutes of Health. For PK study, C57BL6 female mice (25-30g body weight) were injected intraperitoneally, orally, or intravenously with 25 mg/kg M029 dissolved in 0.4 ml saline. Blood samples were collected through the tail vein at the indicated time points after injection. Isoflurane was used as an anesthetic. All blood samples were centrifuged at 1,500 g for 5 minutes, and plasma was separated and stored at –80°C until analysis by a validated method based on reversed-phase liquid chromatography coupled to mass-spectrometric detection (LC/MS) using a previously published procedure.^169 For the MC38 syngeneic tumor study, 12-week-old C57BL6 female mice were injected subcutaneously with […] MC38 cells in the right and left flanks for tumor growth. When tumors reached an average volume of 100 mm^3 mice were tumor size-matched and randomly assigned to different experimental groups for experiments. Four mice with eight tumors were used in each treatment group. Mice were injected orally with saline or 25 or 100 mg/kg M029 daily. Tumor sizes and animal weights were measured twice per week. Tumor volume (mm^3) = (length X width^2)/2. At the end of the experiments, mice were euthanized, and tumors were collected for analysis. Among eight tumors collected from each group, four homogenous samples and […] were prepared for Western blots and histology analysis.

T2 sequence (Q9UNH5 1-413, species assumed): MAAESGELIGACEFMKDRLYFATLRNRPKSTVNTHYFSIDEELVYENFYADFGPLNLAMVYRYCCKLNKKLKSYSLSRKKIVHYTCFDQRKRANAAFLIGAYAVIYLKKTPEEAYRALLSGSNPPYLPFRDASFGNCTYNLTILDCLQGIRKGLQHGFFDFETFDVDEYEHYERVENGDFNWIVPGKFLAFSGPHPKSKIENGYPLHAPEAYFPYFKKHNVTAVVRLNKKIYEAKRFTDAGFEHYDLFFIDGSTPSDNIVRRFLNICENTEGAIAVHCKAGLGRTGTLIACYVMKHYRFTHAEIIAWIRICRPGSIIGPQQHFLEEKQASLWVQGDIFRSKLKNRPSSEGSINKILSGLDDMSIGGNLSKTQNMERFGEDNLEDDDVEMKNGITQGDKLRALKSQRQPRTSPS
T6 sequence (Q05209 5-304): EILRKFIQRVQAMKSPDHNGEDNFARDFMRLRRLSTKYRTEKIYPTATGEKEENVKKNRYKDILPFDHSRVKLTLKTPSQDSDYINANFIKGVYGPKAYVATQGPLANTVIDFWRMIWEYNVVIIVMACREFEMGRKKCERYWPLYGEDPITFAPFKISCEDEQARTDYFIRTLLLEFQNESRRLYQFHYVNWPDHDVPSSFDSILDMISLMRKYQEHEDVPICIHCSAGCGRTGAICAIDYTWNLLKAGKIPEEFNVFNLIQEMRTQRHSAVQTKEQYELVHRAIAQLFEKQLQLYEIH
T4 sequence (P54829 282-563, species assumed): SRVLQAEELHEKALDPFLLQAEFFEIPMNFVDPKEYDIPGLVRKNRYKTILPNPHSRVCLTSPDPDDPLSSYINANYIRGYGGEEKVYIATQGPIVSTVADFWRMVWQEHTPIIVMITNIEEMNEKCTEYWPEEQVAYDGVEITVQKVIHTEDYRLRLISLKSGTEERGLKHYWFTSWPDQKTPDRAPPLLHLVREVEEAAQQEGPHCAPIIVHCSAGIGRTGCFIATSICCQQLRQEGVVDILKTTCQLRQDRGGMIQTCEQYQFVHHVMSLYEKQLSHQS
T3 sequence (Q9Y6W6 320-467 limits assumed, species assumed): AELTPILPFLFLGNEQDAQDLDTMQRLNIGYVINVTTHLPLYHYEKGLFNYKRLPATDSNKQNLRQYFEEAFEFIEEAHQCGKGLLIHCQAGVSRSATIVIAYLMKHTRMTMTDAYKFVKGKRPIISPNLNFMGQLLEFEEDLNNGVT
T5 sequence (P08575 620-1236, species assumed): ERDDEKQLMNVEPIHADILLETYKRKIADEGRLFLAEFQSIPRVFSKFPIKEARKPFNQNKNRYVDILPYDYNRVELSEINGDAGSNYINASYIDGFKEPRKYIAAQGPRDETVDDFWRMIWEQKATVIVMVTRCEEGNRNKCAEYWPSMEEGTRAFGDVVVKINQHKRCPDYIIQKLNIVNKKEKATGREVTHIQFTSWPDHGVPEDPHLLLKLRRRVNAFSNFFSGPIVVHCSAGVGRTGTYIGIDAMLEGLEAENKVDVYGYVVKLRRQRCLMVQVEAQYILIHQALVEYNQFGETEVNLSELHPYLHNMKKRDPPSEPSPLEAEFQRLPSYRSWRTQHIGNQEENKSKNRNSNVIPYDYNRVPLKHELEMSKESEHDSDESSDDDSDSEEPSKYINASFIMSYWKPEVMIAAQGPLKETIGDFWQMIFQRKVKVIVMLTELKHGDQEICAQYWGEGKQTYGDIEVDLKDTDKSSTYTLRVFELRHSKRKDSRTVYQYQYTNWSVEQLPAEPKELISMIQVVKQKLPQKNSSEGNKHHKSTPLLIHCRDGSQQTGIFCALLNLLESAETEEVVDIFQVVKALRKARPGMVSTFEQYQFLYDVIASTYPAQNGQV
Sequence of VHR (P51452 whole entry, species assumed): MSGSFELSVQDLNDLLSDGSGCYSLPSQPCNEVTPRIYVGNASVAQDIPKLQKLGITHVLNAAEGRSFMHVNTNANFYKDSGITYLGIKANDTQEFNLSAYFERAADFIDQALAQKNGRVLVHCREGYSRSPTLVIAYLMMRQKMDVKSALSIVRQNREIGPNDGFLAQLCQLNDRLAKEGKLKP
T1 sequence (P35236 22-360): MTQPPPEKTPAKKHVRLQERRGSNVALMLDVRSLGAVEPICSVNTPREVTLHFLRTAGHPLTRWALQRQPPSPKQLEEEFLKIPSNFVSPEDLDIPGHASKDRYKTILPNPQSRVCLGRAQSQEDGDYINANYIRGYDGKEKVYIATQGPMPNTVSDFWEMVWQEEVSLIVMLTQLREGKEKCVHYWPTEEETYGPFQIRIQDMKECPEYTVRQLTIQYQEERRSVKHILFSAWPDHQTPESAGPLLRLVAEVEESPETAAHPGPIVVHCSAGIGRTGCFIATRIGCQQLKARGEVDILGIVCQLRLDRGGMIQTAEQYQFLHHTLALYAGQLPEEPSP

SMILES: N#Cc1ccsc1NS(=O)(=O)c1ccc(NC(=O)CCl)cc1 [M029, 2-Chloro-N-(4-(N-(3-cyanothiophen-2-yl)sulfamoyl)phenyl)acetamide]
- IC50 [1]: > 200 µM
- IC50 [2]: > 200 µM
- IC50 [3]: 165 ± 20.1 µM
- IC50 [4]: > 200 µM
- IC50 [5]: 180 ± 46.8 µM
- IC50 [6]: 139 ± 38.5 µM
- IC50 [7]: > 200 µM
- body weight ([8]; 25 or 100 mg/kg oral): no significant changes
- tumor volume and tumor weight ([8]; 25 or 100 mg/kg oral vs vehicle): significant decreases
- kidney and liver tissue sections ([8]; IP dosing, Figure S5): No significant lesion or tissue changes
- MC38 tumor progression, 25 mg/kg IP ([8]; once daily IP injection 25 mg/kg): effectively halted tumor progression
- MC38 tumor progression, 25 mg/kg PO ([8]; once daily oral gavage 25 mg/kg, 25 mg/kg): effectively halted tumor progression; also recorded: significantly delayed
- MC38 tumor progression, 100 mg/kg PO ([8]; once daily oral gavage 100 mg/kg, 100 mg/kg): effectively halted tumor progression; also recorded: significantly delayed
- signs of toxicity ([8]; up to 100 mg/kg, body weight and organ histology): no obvious signs of toxicity

Reference: PMC12833730, “Discovery of a First‐in‐Class Covalent Allosteric SHP1 Inhibitor with Immunotherapeutic Activity” (Angewandte Chemie (International Ed. in English), 2025)
